Reference: ChEMBL document CHEMBL3046515, “Zn(Proline)2-catalyzed Knoevenagel condensation under solvent-free/aqueous conditions and biological evaluation of products” (2011)
Active and inactive are the calls of the source. The rule behind the calls is not given here.

Legend:
[1] = system: Salmonella typhimurium; experiment: Antibacterial activity against Salmonella enterica subsp. enterica serovar Typhimurium MTCC 98 at 30 ug/disc after 24 hr by filter paper disk method; format: functional; conditions: MTCC 98, 24 h, read-out: DIZ
[2] = system: Aspergillus niger; experiment: Antifungal activity against Aspergillus niger at 100 ug/ml after 72 hr; format: functional; conditions: for zone of inhibition at 100 µg/mL: read-out: DIZ
[3] = system: Aspergillus fumigatus; experiment: Antifungal activity against Aspergillus fumigatus at 100 ug/ml after 72 hr; format: functional; conditions: for zone of inhibition at 100 µg/mL: read-out: DIZ
[4] = system: Escherichia coli; experiment: Antibacterial activity against Escherichia coli K-12 at 30 ug/disc after 24 hr by filter paper disk method; format: functional; conditions: K-12, 24 h, read-out: DIZ
[5] = system: Staphylococcus aureus; experiment: Antibacterial activity against Staphylococcus aureus SA 22 at 30 ug/disc after 24 hr by filter paper disk method; format: functional; conditions: SA 22, 24 h, read-out: DIZ
[6] = system: Candida albicans; experiment: Antifungal activity against Candida albicans at 100 ug/ml after 18 to 48 hr; format: functional; conditions: for zone of inhibition at 100 µg/mL: read-out: DIZ
[7] = system: Bacillus subtilis; experiment: Antibacterial activity against Bacillus subtilis MTCC 121 at 30 ug/disk after 24 hr by filter paper disk method; format: functional; conditions: MTCC 121, 24 h, read-out: DIZ
[8] = system: Escherichia coli; experiment: Antibacterial activity against Escherichia coli K-12 at 100 ug/ml after 24 hr by filter paper disk method; format: functional; conditions: for zone of inhibition at 100 µg/mL: K-12, 24 h, read-out: DIZ
[9] = system: Bacillus subtilis; experiment: Antibacterial activity against Bacillus subtilis MTCC 121 at 100 ug/ml after 24 hr by filter paper disk method; format: functional; conditions: for zone of inhibition at 100 µg/mL: MTCC 121, 24 h, read-out: DIZ
[10] = system: Salmonella typhimurium; experiment: Antibacterial activity against Salmonella enterica subsp. enterica serovar Typhimurium MTCC 98 at 100 ug/ml after 24 hr by filter paper disk method; format: functional; conditions: for zone of inhibition at 100 µg/mL: MTCC 98, 24 h, read-out: DIZ
[11] = system: Staphylococcus aureus; experiment: Antibacterial activity against Staphylococcus aureus SA 22 at 100 ug/ml after 24 hr by filter paper disk method; format: functional; conditions: for zone of inhibition at 100 µg/mL: SA 22, 24 h, read-out: DIZ
[12] = system: Aspergillus fumigatus; experiment: Antifungal activity against Aspergillus fumigatus at 30 ug/disk after 72 hr; format: functional, organism-based
[13] = system: Aspergillus niger; experiment: Antifungal activity against Aspergillus niger at 30 ug/disk after 72 hr; format: functional, organism-based
[14] = system: Candida albicans; experiment: Antifungal activity against Candida albicans at 30 ug/disk after 18 to 48 hr; format: functional, organism-based

Row | Compound | diameter of the inhibition zone (DIZ) [2] | diameter of the inhibition zone (DIZ) [3] | diameter of the inhibition zone (DIZ) [6] | zone of inhibition at 100 µg/mL [2] | zone of inhibition at 100 µg/mL [3] | zone of inhibition at 100 µg/mL [8] | zone of inhibition at 100 µg/mL [9] | zone of inhibition at 100 µg/mL [10] | zone of inhibition at 100 µg/mL [6] | zone of inhibition at 100 µg/mL [11] | diameter of the inhibition zone (DIZ) [10] | further results
1 | O=C(N[C@H](CO)[C@H](O)c1ccc([N+](=O)[O-])cc1)C(Cl)Cl [CHLORAMPHENICOL] | inactive | inactive | inactive |  |  |  |  |  |  |  |  | zone of inhibition at 30 µg/disc [1]: 20 mm; zone of inhibition at 30 µg/disc [4]: 25 mm; zone of inhibition at 30 µg/disc [5]: 26 mm; zone of inhibition at 30 µg/disc [7]: 24 mm
2 | CC1=NN(c2ccccc2)C(=O)/C1=C/c1c(C)nn(-c2ccccc2)c1Cl |  |  | inactive | 10 mm | 11 mm | 8 mm | 12 mm | 12 mm |  |  |  | diameter of the inhibition zone (DIZ) [11]: inactive
3 | Cc1nn(-c2ccccc2)c(Cl)c1C=C1C(=O)c2ccccc2C1=O |  |  |  | 8 mm | 10 mm | 17 mm | 8 mm | 15 mm | 12 mm | 12 mm |  | 
4 | Cc1nn(-c2ccccc2)c(Cl)c1C=C1C(=O)NC(=O)NC1=O | inactive | inactive | inactive |  |  | 15 mm | 19 mm | 12 mm |  | 17 mm |  | 
5 | Cc1nn(-c2ccccc2)c(Cl)c1C=C1C(=O)N(C)C(=S)N(C)C1=O | inactive | inactive |  |  |  | 15 mm | 8 mm | 17 mm | 16 mm | 12 mm |  | 
6 | Cc1nn(-c2ccccc2)c(Cl)c1C=C1C(=O)N(C)C(=O)N(C)C1=O |  |  |  | 8 mm | 11 mm | 15 mm | 16 mm | 14 mm | 11 mm | 20 mm |  | 
7 | Cc1nn(-c2ccccc2)c(Cl)c1/C=C1\Sc2ccccc2NC1=O | inactive | inactive |  |  |  | 8 mm |  |  | 15 mm | 14 mm | inactive | diameter of the inhibition zone (DIZ) [9]: inactive
8 | NYSTATIN |  |  |  |  |  |  |  |  |  |  | inactive | inhibition zone (IZ) [12]: 18 mm; inhibition zone (IZ) [13]: 18 mm; diameter of the inhibition zone (DIZ) [8]: inactive; diameter of the inhibition zone (DIZ) [9]: inactive; inhibition zone (IZ) [14]: 20 mm; diameter of the inhibition zone (DIZ) [11]: inactive
9 | Cc1nn(-c2ccccc2)c(Cl)c1C=C1C(=O)OC(C)(C)OC1=O | inactive | inactive |  |  |  |  | 15 mm |  | 14 mm | 19 mm | inactive | diameter of the inhibition zone (DIZ) [8]: inactive
